Reference: patent publication US12685757B2, “Method to increase systemic blood pressure in shock” (GEORGETOWN UNIVERSITY, priority 2019, dated 2026)

Tests used:
[1] = test system: isolated pressurized (60 mmHg) arteries; assay: Ex vivo contractility of isolated pressurized arteries; parameters: species or system mice; details: arterioles
Description: Ex vivo artery physiology: Skeletal muscle arteries (radial artery branch, artery #18, subscapular branch artery #14) and cerebellar branch, cerebral artery #3) were isolated and cannulated with glass micropipettes secured with monofilament threads. The pipette and bathing solution contained modified PSS (125 mM NaCl, 3 mM KCl, 26 mM NaHCO3, 1.25 mM NaH2PO4, 1 mM MgCl2, 4 mM D-glucose, and 2 mM CaCl2)) aerated with a gas mixture consisting of 95% 02, 5% CO2, to maintain pH (pH 7.4). Arterioles were pressure clamped (60 mmHg) using a custom-built apparatus in a heated imaging chamber (Tokai Hit), viewed with a 10× objective using a Nikon TE2000 microscope and recorded by a Retiga 3000 digital camera (QImaging). The arteriole diameter was measured at several locations along each arteriole using the NIH-ImageJ software's edge-detection plug-in (Diameter). The software automatically detects the distance between edges (by resampling a total of five times from adjacent pixels) yielding a continuous read-out SD of a vessel's diameter.

DRG = assay: nLacZ staining of DRG after systemic TRPV1 agonist (neurotoxicity); assay type: in vivo; details: 50 μg/kg; TRPV1-nLacZ reporter mice; preliminary data
Description: A potential adverse effect of TRPV1 agonists is toxicity to sensory nerves. Indeed, in vivo administration of the ultrapotent agonist, resiniferatoxin (RTX), or even high doses of capsaicin can lead to destruction of TRPV1+ neurons (Szallasi S and Blumberg P M, “Vanilloid receptor loss in rat sensory ganglia associated with long term desensitization to resiniferatoxin” Neurosci Lett 140 (1)(1992)51-54. In one embodiment, TRPV1 agonists that poorly penetrate the CNS, such as DkTx or BrP-LPA, are employed. In vivo toxicity is tested by the administration of TRPV1 agonists in TRPV1^PLAP-nLacZ mice based on the highest cumulative doses utilized in EXAMPLE 5. One week later, DRG are isolated and analyzed for nLacZ staining. […] This analysis therefore determines TRPV1 agonist neurotoxicity and forms an assay for toxicity limiting strategies. In one embodiment, BrP-LPA is employed as a more hydrophilic molecule than capsaicin with less neurotoxicity. In another embodiment, DkTx, with limited CNS penetration, is employed to avoid neurotoxicity.
X-gal staining. TRPV1^PLAP-nlacZ mice were anesthetized with isoflurane and perfused through the heart using PBS (0.1M, pH 7.3) followed by ice-cold 2-4% buffered paraformaldehyde. […]

With resiniferatoxin the “response to prolonged application” value [1] was “non-desensitizing response” and the “nLacZ staining in DRG” value (DRG) was “nearly completely abolishes nLacZ staining”.
